# Results from publication PMC7418987, “NHD2-15, a novel antagonist of Growth Factor Receptor-Bound Protein-2 (GRB2), inhibits leukemic proliferation” (PLoS ONE, 2020).
# Tests used:
# Type in all cases: binding
# [1] = target: T1, Growth factor receptor-bound protein-2 (GRB2) (Homo sapiens, UniProt P62993); assay: SPR (GRB2 immobilized on CM5 chip); authors call conditions sub-par for this compound
# [2] = target: T1, Growth factor receptor-bound protein-2 (GRB2); assay: SPR (GRB2 immobilized on CM5 chip); authors call conditions sub-par; only two non-zero concentrations shown
# Source text: SPR (GRB2 immobilized on CM5 chip); authors call conditions sub-par; only two non-zero concentrations shown on Growth factor receptor-bound protein-2 (GRB2) | SPR data of NHD2-107 versus GRB2.
# [3] = target: T1, Growth factor receptor-bound protein-2 (GRB2); assay: SPR (GRB2 immobilized on CM5 chip); supported by competition ELISA with GST-GRB2 and cellulose nitrate filtration assay
Kd [1] [µM],Structure (SMILES),also measured
1000 ± 20,COC(=O)c1c(C)oc2nc3ccccc3nc12 [NHD2-92],–
–,CCOC(=O)c1c(-c2ccccc2)oc2nc3ccccc3nc12 [NHD2-107],Kd [2]: 3400 ± 100 µM
440 ± 7,CCOC(=O)c1c(C)oc2nc3ccccc3nc12 [NHD2-114],–
–,CC(=O)c1c(C)oc2nc3ccccc3nc12 [NHD2-15],Kd [3]: 119 ± 2 µM
